Laboratory results: US11168095B2, “ASK1 inhibiting agents” (BIOGEN MA INC., priority 2017, dated 2021)
Like-named read-outs stand apart in the source and are kept apart here.

Legend:
ASK1/MAP3K5 = ASK1/MAP3K5 (Homo sapiens (Human), UniProt Q99683); test: ASK1/MAP3K5 assay by Reaction Biology Corp.; assay type: biochemical; conditions: 20 μM myelin basic protein (MBP), 10 μM ATP
Protocol: ASK1/MAP3K5 was used as the protein kinase and 20 μM of myelin basic protein (MBP) and 10 μM ATP were used as the substrate.

GST-hASK1 = GST-hASK1 (Homo sapiens (Human), UniProt Q99683); test: ASK1 TR-FRET assay; assay type: biochemical; conditions: 5 nM GST-hASK1, 100 μM ATP, 2 μM STK Substrate 3
Protocol: The protein kinase activity of 5 nM GST-hASK1(Life Technologies PV4011) was assayed with 100 μM ATP and 2 μM of HTRF biotinylated STK Substrate 3 (CisBio Kit 62ST3PEJ), at ambient temperature in 25 mM Hepes, pH 7.5, 50 mM NaCl, 10 mM MgCl2, 0.02% Brij-35, 1 mM DTT, and 1% DMSO.
After a 10 minute pre-incubation, ASK1 protein kinase activity was initiated by addition of 10 μL of 300 μM ATP.

[1] = biological target: ASK1 T838 auto phosphorylation in HEK-293T cells (Homo sapiens (Human), UniProt Q99683); test: ASK1 (AUTO PHOS T838) assay, MSD format; assay type: cell-based
[2] = HEK 293T cells transfected with ASK1-V5 full length plasmid, compounds 1 hr at 37° C., read-out: IC50

Sequence of ASK1/MAP3K5 (Q99683 whole entry): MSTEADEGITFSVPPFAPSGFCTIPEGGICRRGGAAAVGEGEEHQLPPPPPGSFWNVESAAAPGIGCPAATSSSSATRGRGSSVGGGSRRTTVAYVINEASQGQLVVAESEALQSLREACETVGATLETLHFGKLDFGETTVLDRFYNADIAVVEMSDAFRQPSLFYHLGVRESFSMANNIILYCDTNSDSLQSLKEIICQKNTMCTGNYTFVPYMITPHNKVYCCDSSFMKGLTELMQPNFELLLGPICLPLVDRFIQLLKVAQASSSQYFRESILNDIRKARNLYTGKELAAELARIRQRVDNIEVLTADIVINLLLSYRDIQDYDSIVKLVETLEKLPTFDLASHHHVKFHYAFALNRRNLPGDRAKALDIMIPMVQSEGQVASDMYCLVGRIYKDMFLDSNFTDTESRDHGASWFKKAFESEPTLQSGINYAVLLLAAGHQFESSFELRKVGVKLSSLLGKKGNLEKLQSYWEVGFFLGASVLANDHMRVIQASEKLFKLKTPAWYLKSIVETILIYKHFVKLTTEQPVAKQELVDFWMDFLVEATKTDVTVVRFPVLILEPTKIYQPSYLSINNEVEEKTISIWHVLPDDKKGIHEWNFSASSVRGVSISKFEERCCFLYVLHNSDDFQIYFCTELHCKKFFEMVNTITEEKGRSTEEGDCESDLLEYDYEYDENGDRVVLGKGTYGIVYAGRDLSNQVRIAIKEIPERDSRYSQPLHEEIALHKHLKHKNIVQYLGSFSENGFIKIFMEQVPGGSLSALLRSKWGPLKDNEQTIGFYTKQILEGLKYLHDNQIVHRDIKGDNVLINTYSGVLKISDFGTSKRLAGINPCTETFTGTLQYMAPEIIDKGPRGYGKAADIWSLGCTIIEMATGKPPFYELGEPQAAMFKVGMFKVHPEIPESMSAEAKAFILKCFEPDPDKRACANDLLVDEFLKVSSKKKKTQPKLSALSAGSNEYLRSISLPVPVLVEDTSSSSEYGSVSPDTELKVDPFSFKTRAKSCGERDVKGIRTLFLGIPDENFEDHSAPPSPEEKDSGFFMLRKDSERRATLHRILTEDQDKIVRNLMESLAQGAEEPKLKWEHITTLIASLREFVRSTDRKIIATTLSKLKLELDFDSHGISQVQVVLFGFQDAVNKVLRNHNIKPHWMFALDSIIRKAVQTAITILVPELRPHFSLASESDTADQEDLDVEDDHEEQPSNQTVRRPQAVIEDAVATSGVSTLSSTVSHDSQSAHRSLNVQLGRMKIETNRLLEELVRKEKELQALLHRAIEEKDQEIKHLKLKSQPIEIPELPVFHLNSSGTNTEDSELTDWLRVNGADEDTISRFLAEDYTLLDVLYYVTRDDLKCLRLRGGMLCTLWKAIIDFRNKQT
Sequence of ASK1 T838 auto phosphorylation in HEK-293T cells (Q99683 whole entry): as above
Sequence of GST-hASK1 (Q99683 649-946): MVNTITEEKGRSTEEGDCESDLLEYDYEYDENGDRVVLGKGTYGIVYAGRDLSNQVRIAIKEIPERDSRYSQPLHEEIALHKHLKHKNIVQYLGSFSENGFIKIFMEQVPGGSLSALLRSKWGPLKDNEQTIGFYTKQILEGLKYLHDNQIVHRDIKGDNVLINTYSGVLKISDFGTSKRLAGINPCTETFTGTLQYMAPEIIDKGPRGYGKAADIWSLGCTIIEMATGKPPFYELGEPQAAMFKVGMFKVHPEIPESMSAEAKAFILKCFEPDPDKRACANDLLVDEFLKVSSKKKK

Row | IC50 (ASK1/MAP3K5) [nM] | IC50 (GST-hASK1) [nM] | IC50 [1, 2] [nM] | IC50 (GST-hASK1; class given in words) [nM] | Structure (SMILES) | IC50 ([1]; read-out: IC50) [nM] | IC50 [1] [nM]
1 | < 100 | < 100 | < 1000 | – | Cn1nccc1-c1ccc2c(c1)C(=O)Nc1cccc(n1)-c1nncn1CCCCO2 [Example 23, 5^5-(1-Methyl-1H-pyrazol-5-yl)-1^4H-6-oxa-3-aza-2(2,6)-pyridina-1(3,4)-triazola-5(1,2)-benzenacyclodecaphan-4-one] | – | –
2 | < 100 | < 100 | < 1000 | – | Cc1cc(-c2ccc3c(c2)C(=O)Nc2cccc(n2)-c2nncn2CCCCO3)n(C)n1 [Example 34, 5^5-(1,3-Dimethyl-1H-pyrazol-5-yl)-1^4H-6-oxa-3-aza-2(2,6)-pyridina-1(3,4)-triazola-5(1,2)-benzenacyclodecaphan-4-one] | – | –
3 | < 100 | < 100 | < 1000 | – | O=C1Nc2cccc(n2)-c2nncn2CCCCOc2ccc(N3CCC(F)(F)C3)cc21 [Example 10, 5^5-(3,3-Difluoropyrrolidin-1-yl)-1^4H-6-oxa-3-aza-2(2,6)-pyridina-1(3,4)-triazola-5(1,2)-benzenacyclodecaphan-4-one] | – | –
4 | < 100 | < 100 | < 1000 | – | Cc1nn(C)c(C)c1-c1ccc2c(c1)C(=O)Nc1cccc(n1)-c1nncn1CCCCO2 [Example 33, 5^5-(1,3,5-Trimethyl-1H-pyrazol-4-yl)-1^4H-6-oxa-3-aza-2(2,6)-pyridina-1(3,4)-triazola-5(1,2)-benzenacyclodecaphan-4-one] | – | –
5 | < 100 | < 100 | < 1000 | – | O=C1Nc2cccc(n2)-c2nncn2CCCCOc2ccc(-n3cccn3)cc21 [Example 44, 5^5-(1H-Pyrazol-1-yl)-1^4H-6-oxa-3-aza-2(2,6)-pyridina-1(3,4)-triazola-5(1,2)-benzenacyclodecaphan-4-one] | – | –
6 | < 100 | < 100 | < 1000 | – | O=C1Nc2cccc(n2)-c2nncn2CCCCOc2ccc(N3CCCC(F)(F)C3)cc21 [Example 11, 5^5-(3,3-Difluoropiperidin-1-yl)-1^4H-6-oxa-3-aza-2(2,6)-pyridina-1(3,4)-triazola-5(1,2)-benzenacyclodecaphan-4-one] | – | –
7 | < 100 | < 100 | < 1000 | – | Cc1nn(C)cc1-c1ccc2c(c1)C(=O)Nc1cccc(n1)-c1nncn1CCCCO2 [Example 32, 5^5-(1,3-Dimethyl-1H-pyrazol-4-yl)-1^4H-6-oxa-3-aza-2(2,6)-pyridina-1(3,4)-triazola-5(1,2)-benzenacyclodecaphan-4-one] | – | –
8 | < 100 | < 100 | < 1000 | – | N#Cc1ccc2c(c1)C(=O)Nc1cccc(n1)-c1nncn1CCCCO2 [Example 20, 4-Oxo-1^4H-6-oxa-3-aza-2(2,6)-pyridina-1(3,4)-triazola-5(1,2)-benzenacyclodecaphane-5^5-carbonitrile] | – | –
9 | < 100 | < 100 | < 1000 | – | Cc1ncn(-c2ccc3c(c2)C(=O)Nc2cccc(n2)-c2nncn2CCCCO3)c1C [Example 42, 5^5-(4,5-Dimethyl-1H-imidazol-1-yl)-1^4H-6-oxa-3-aza-2(2,6)-pyridina-1(3,4)-triazola-5(1,2)-benzenacyclodecaphan-4-one] | – | –
10 | < 100 | < 100 | < 1000 | – | Cn1cncc1-c1ccc2c(c1)C(=O)Nc1cccc(n1)-c1nncn1CCCCO2 [Example 29, 5^5-(1-Methyl-1H-imidazol-5-yl)-1^4H-6-oxa-3-aza-2(2,6)-pyridina-1(3,4)-triazola-5(1,2)-benzenacyclodecaphan-4-one] | – | –
11 | < 100 | < 100 | < 1000 | – | C[C@H]1CCCOc2ccc(-c3cnn(C)c3)cc2C(=O)Nc2cccc(n2)-c2nncn21 [Example 96, (S)-10-Methyl-5^5-(1-methyl-1H-pyrazol-4-yl)-1^4H-6-oxa-3-aza-2(2,6)-pyridina-1(3,4)-triazola-5(1,2)-benzenacyclodecaphan-4-one] | – | –
12 | < 100 | < 100 | < 1000 | – | O=C1Nc2cccc(n2)-c2nncn2CCCCCOc2ccc(N3CC4(COC4)C3)cc21 [Example 173, 5^5-(2-Oxa-6-azaspiro[3.3]heptan-6-yl)-1^4H-6-oxa-3-aza-2(2,6)-pyridina-1(3,4)-triazola-5(1,2)-benzenacycloundecaphan-4-one] | – | –
13 | < 100 | < 100 | < 1000 | – | O=C1Nc2cccc(n2)-c2nncn2CCCCOc2ccc(C3CCOC3)cc21 (racemic) [Example 15, rac-5^5-(Tetrahydrofuran-3-yl)-1^4H-6-oxa-3-aza-2(2,6)-pyridina-1(3,4)-triazola-5(1,2)-benzenacyclodecaphan-4-one] | – | –
14 | – | 1000 to 10000 | > 10000 | – | O=C1Nc2cccc(n2)-c2nncn2C/C=C/COc2c1cccc2C(F)(F)F [Example 166, (E)-5^3-(Trifluoromethyl)-1^4H-6-oxa-3-aza-2(2,6)-pyridina-1(3,4)-triazola-5(1,2)-benzenacyclodecaphan-8-en-4-one] | – | –
15 | – | 100 to 1000 | 1000 to 10000 | – | C[C@@H]1CCCOc2ccc(-c3cnn(C)c3)cc2C(=O)Nc2cccc(n2)-c2nncn21 [Example 95, (R)-10-Methyl-5^5-(1-methyl-1H-pyrazol-4-yl)-1^4H-6-oxa-3-aza-2(2,6)-pyridina-1(3,4)-triazola-5(1,2)-benzenacyclodecaphan-4-one] | – | –
16 | – | – | > 10000 | ≥ 10000 | O=C1Nc2cccc(n2)-c2nncn2C/C=C\COc2c1cccc2C(F)(F)F [Example 167, (Z)-5^3-(Trifluoromethyl)-1^4H-6-oxa-3-aza-2(2,6)-pyridina-1(3,4)-triazola-5(1,2)-benzenacyclodecaphan-8-en-4-one] | – | –
17 | – | 100 to 1000 | > 10000 | – | O=C1Nc2cccc(n2)-c2nncn2C/C=C/COc2c(Br)cccc21 [Example 163, (E)-5^3-Bromo-1^4H-6-oxa-3-aza-2(2,6)-pyridina-1(3,4)-triazola-5(1,2)-benzenacyclodecaphan-8-en-4-one] | – | –
18 | – | < 100 | 1000 to 10000 | – | Cn1cc(-c2ccc3c(c2)C(=O)Nc2cccc(n2)-c2nncn2CCCCO3)nn1 [Example 30, 5^5-(1-Methyl-1H-1,2,3-triazol-4-yl)-1^4H-6-oxa-3-aza-2(2,6)-pyridina-1(3,4)-triazola-5(1,2)-benzenacyclodecaphan-4-one] | – | –
19 | – | < 100 | < 1000 | – | O=C1Nc2cccc(n2)-c2nncn2C/C=C\COc2ccc(F)cc21 [Example 159, (Z)-5^5-Fluoro-1^4H-6-oxa-3-aza-2(2,6)-pyridina-1(3,4)-triazola-5(1,2)-benzenacyclodecaphan-8-en-4-one] | – | –
20 | – | 100 to 1000 | 1000 to 10000 | – | O=C1Nc2cccc(n2)-c2nncn2C/C=C/COc2ccc(F)cc21 [Example 158, (E)-5^5-Fluoro-1^4H-6-oxa-3-aza-2(2,6)-pyridina-1(3,4)-triazola-5(1,2)-benzenacyclodecaphan-8-en-4-one] | – | –
21 | – | 100 to 1000 | 1000 to 10000 | – | O=C1Nc2cccc(n2)-c2nncn2C/C=C\COc2cc(C(F)(F)F)ccc21 [Example 155, (Z)-5^4-(Trifluoromethyl)-1^4H-6-oxa-3-aza-2(2,6)-pyridina-1(3,4)-triazola-5(1,2)-benzenacyclodecaphan-8-en-4-one] | – | –
22 | – | < 100 | < 1000 | – | O=C1Nc2cccc(n2)-c2nncn2CCCCOc2cc(C(F)(F)F)ccc21 [Example 153, 5^4-(Trifluoromethyl)-1^4H-6-oxa-3-aza-2(2,6)-pyridina-1(3,4)-triazola-5(1,2)-benzenacyclodecaphan-4-one] | – | –
23 | – | – | > 10000 | ≥ 10000 | O=C1Nc2cccc(n2)-c2nncn2C/C=C\COc2c(Br)cccc21 [Example 164, (Z)-5^3-Bromo-1^4H-6-oxa-3-aza-2(2,6)-pyridina-1(3,4)-triazola-5(1,2)-benzenacyclodecaphan-8-en-4-one] | – | –

Row | Structure (SMILES) | IC50 (ASK1/MAP3K5) [nM] | IC50 (GST-hASK1) [nM] | IC50 [1, 2] [nM] | IC50 (GST-hASK1; class given in words) [nM] | IC50 ([1]; read-out: IC50) [nM] | IC50 [1] [nM]
24 | O=C1Nc2cccc(n2)-c2nncn2CCCCOc2ccc(N3C4CCC3COC4)cc21 [Example 5, 5^5-(3-Oxa-8-azabicyclo[3.2.1]octan-8-yl)-1^4H-6-oxa-3-aza-2(2,6)-pyridina-1(3,4)-triazola-5(1,2)-benzenacyclodecaphan-4-one] | < 100 | < 100 | < 1000 | – | – | –
25 | O=C1Nc2cccc(n2)-c2nncn2CCCCOc2ccc(N3CC4CC(C3)O4)cc21 [Example 6, 5^5-(6-Oxa-3-azabicyclo[3.1.1]heptan-3-yl)-1^4H-6-oxa-3-aza-2(2,6)-pyridina-1(3,4)-triazola-5(1,2)-benzenacyclodecaphan-4-one] | < 100 | < 100 | < 1000 | – | – | –
26 | O=C1Nc2cccc(n2)-c2nncn2C/C=C\COc2ccc(N3CCOCC3)cc21 [Example 169, (Z)-5^5-Morpholino-1^4H-6-oxa-3-aza-2(2,6)-pyridina-1(3,4)-triazola-5(1,2)-benzenacyclodecaphan-8-en-4-one] | – | < 100 | – | – | < 1000 | –
27 | O=C1Nc2cccc(n2)-c2nncn2C/C=C\COc2ccc(Br)cc21 [Example 161, (Z)-5^5-Bromo-1^4H-6-oxa-3-aza-2(2,6)-pyridina-1(3,4)-triazola-5(1,2)-benzenacyclodecaphan-8-en-4-one] | – | < 100 | – | – | – | 1000 to 10000
28 | O=C1Nc2cccc(n2)-c2nncn2C/C=C/COc2ccc(Br)cc21 [Example 162, (E)-5^5-Bromo-1^4H-6-oxa-3-aza-2(2,6)-pyridina-1(3,4)-triazola-5(1,2)-benzenacyclodecaphan-8-en-4-one] | – | < 100 | 1000 to 10000 | – | – | –
